We go through two compounds from PMC5522529, “Mechanisms of Paradoxical Activation of AMPK by the Kinase Inhibitors SU6656 and Sorafenib” (Cell Chemical Biology, 2017).

Assay [1] addresses T1, human AMPK-α2 Y436F mutant (Homo sapiens, UniProt P54646, Y436F).
T1 construct: expressed in transfected cells; host or cells: HEK293 (transient transfection)
Description: AMPK activity of FLAG-tagged Y436F AMPK-α2 expressed in HEK293 cells. Conditions: SU6656 100 μM, phenformin 10 mM, A23187 10 μM, 1 hr. Type of assay: cell-based. The method, then:
(§1) Top: AMPK activity (mean ± SEM, n = 4); bottom: western blots showing phosphorylation of Thr172 on AMPK, and of ERK1/2, in cells treated with DMSO (control), SU6656 (100 μM), or PP2 (100 nM) (n = 2). (B) As (A), but in SYF cells. (C) HeLa cells were transfected with DNAs encoding GFP alone, or GFP fused to WT, Y261F/Y365F (FF), or Y36F/Y261F/Y365F (FFF) mutants of LKB1; cells were treated with increasing concentrations of SU6656 for 1 hr and AMPK activity determined (mean ± SEM, n = 4). See also Figure S1. (D) HEK293 cells were transfected with DNAs encoding FLAG-tagged AMPK-α2 with or without a Y436F mutation. Cells were incubated with DMSO (control), 100 μM SU6656, 10 mM phenformin, or 10 μM A23187 for 1 hr; AMPK complexes were immunoprecipitated using anti-FLAG antibody and assayed. The top panels show kinase activities (mean ± SD, n = 3); the bottom panels show blots from the same experiment (n = 2). In all panels, asterisks indicate significant differences from DMSO controls; in (D), there were no significant differences between the WT and Y463F mutant. **p < 0.01, ****p < 0.0001.

The target in assay [2] is T2, α1 kinase domain (α1-KD, residues 1–312) (Homo sapiens, UniProt Q13131).
T2 construct: amplifying residues 1-312 with an N-terminal FLAG-tag; expressed in transfected cells; host or cells: HEK293 (transient transfection, pcDNA5 FRT)
Nature of the assay: Activity of FLAG-tagged α1 kinase domain expressed in HEK293 cells. As to conditions: 1 hr. Type of assay: cell-based. The text has this: (§2) We next expressed an FLAG-tagged α1 kinase domain (α1-KD, residues 1–312) by transient transfection in HEK293 cells, treated the cells with various AMPK activators, and then assayed both the expressed α1-KD (precipitated using anti-FLAG) and endogenous full-length α1 complexes (precipitated using anti-α1 antibodies recognizing an epitope outside the α1-KD). […] This was also observed with A23187, as expected since this ionophore increases intracellular Ca^2+ and activates the alternate upstream kinase CaMKK2.
(§3) The α1-KD was precipitated using anti-FLAG and endogenous AMPK complexes using anti-α1 antibody, and activity determined. Results (mean ± SD, n = 2) are expressed relative to activities in DMSO controls. (B) Western blots (n = 2) using the indicated antibodies; samples from experiment in (A). (C) DNAs encoding FLAG-tagged AMPK-α1 (WT or AT mutant) were expressed by transient transfection in HEK293 cells, the cells treated with increasing concentrations of SU6656 for 1 hr, AMPK complexes precipitated with anti-FLAG, and activity measured. Results (mean ± SD, n = 3) are expressed relative to the DMSO control. […] Results (mean ± SD, n = 3) are expressed relative to the DMSO control. **p < 0.01, ***p < 0.001, ****p < 0.0001, ^†††p < 0.001; ns, not significant.
A plasmid encoding the AMPK-α2 kinase domain (α2-KD) was made by amplifying residues 1-310 with 5' BamH1 and 3' Xho1 sites, the resulting PCR product was cloned into pGEX6P2. Point mutations were generated using the Quikchange II site-directed mutagenesis kit (Stratagene) and confirmed by DNA sequencing.

For assay [3], the target named is T3, endogenous full-length α1 complexes (Homo sapiens, UniProt Q13131).
T3 construct: endogenous in cells
Description: Activity of endogenous full-length α1 complexes in HEK293 cells. Type of assay: cell-based. Conditions: 1 hr.
Description: as §2, §3

The target of another assay is T4, AMPK-α1 AT mutant (Homo sapiens, UniProt Q13131, A167T).
T4 construct: we expressed FLAG-tagged full-length AMPK-α1 either as the WT or the AT mutant; expressed in transfected cells; host or cells: HEK293 (transient transfection)
Nature of the assay: AMPK activity of FLAG-tagged AMPK-α1 AT mutant expressed in HEK293 cells. Format: cell-based. As to conditions: AT mutant FLAG-α1, 1 hr.
Description: as §3
To confirm that it acted by binding at the catalytic site, we expressed FLAG-tagged full-length AMPK-α1 either as the WT or the AT mutant.

A further assay addresses T5, AMPK-α1 (WT) (Homo sapiens, UniProt Q13131).
T5 construct: we expressed FLAG-tagged full-length AMPK-α1 either as the WT or the AT mutant; expressed in transfected cells; host or cells: HEK293
Nature of the assay: AMPK activity of FLAG-tagged AMPK-α1 (WT) expressed in HEK293 cells. Format: cell-based. As to conditions: 1 hr; for AMPK activity: WT FLAG-α1 (comparison with AT mutant). The text has this: (§4) (B) Western blotting of the same preparations as in (A). […] (D) Allosteric activation of WT and mutant α1β1γ1 complexes by MT 63-78, curve fitting as for (C). […] (E) Allosteric activation of WT and mutant α1β1γ1 complexes by AMP. Data were fitted to the equation for activation/inactivation by AMP ([Gowans et al., 2013]). […] (F) Activation of WT and AA mutant by various AMPK activators in HEK293 cells. […] FLAG-tagged complexes were isolated by immunoprecipitation and AMPK activity determined (mean ± SEM, n = 2).
(§5) We next expressed the FLAG-tagged WT or AA mutant of AMPK-α1 by transient transfection in HEK293 cells, treated with various agents, and measured AMPK activity in anti-FLAG immunoprecipitates. In Figure 4F, the results are expressed as absolute activities and are accompanied by blots showing Thr172 phosphorylation.
The α1-KD was precipitated using anti-FLAG and endogenous AMPK complexes using anti-α1 antibody, and activity determined. […] (B) Western blots (n = 2) using the indicated antibodies; samples from experiment in (A). (C) DNAs encoding FLAG-tagged AMPK-α1 (WT or AT mutant) were expressed by transient transfection in HEK293 cells, the cells treated with increasing concentrations of SU6656 for 1 hr, AMPK complexes precipitated with anti-FLAG, and activity measured.

For another assay, the target named is human AMPK-α2 (WT) (Homo sapiens, UniProt P54646). Description: AMPK activity of FLAG-tagged WT AMPK-α2 expressed in HEK293 cells. Type of assay: cell-based. Conditions: SU6656 100 μM, phenformin 10 mM, A23187 10 μM, 1 hr. Here is the method:
as §1

The next assay deals with T6, AMPK-α1 AA mutant (Homo sapiens, UniProt Q13131, K40A/K42A).
T6 construct: Plasmid encoding full-length human AMPK-α1; expressed in transfected cells; host or cells: HEK293
Nature of the assay: AMPK activity of FLAG-tagged AMPK-α1 K40A/K42A (AA) mutant expressed in HEK293 cells. Format: cell-based. As to conditions: AA mutant FLAG-α1; same concentrations, 1 hr.
Description: as §4, §5

For assay [4], the target named is T7, human α1β1γ1 complex with K40A/K42A (AA) mutations in α1 (Homo sapiens, UniProt P54619+Q13131+Q9Y478, K40A/K42A).
T7 construct: made in house; host or cells: Escherichia coli
Nature of the assay: Allosteric activation of α1β1γ1 complex, K40A/K42A (AA) mutant. Format: biochemical.
Description: (§6) We next tested whether SU6656 activates AMPK by binding at the ADaM site. […] We therefore expressed WT or single (K40A, K42A) or double (K40A/K42A, AA) α1 mutants in the context of the human α1β1γ1 complex (Figure 4A).
as §4
(§7) Endogenous AMPK was immunoprecipitated using the specified antibodies (for total AMPK, an equal mixture of anti-α1 and –α2 antibodies) and assayed at 200 μM ATP ([Hardie et al., 2000], [Towler et al., 2008]) using the AMARA peptide ([Dale et al., 1995]) as substrate, except for assays of allosteric activation by AMP (Figure 5A) where the SAMS peptide was used as substrate with 2 mM ATP ([Gowans et al., 2013]). The AMPK-related kinases SIK1, SIK2, SIK3, SNARK, MARK2/3 and MARK4 were immunoprecipitated and assayed as previously described ([Lizcano et al., 2004]) in lysates of Hela cells stably expressing LKB1 ([Fogarty et al., 2010]). LKB1 was assayed using the LKBtide peptide as substrate ([Sakamoto et al., 2004]).
(§8) Data were fitted to the specified equations by non-linear regression using GraphPad Prism 6 for Mac OSX.

For assay [5], the target named is T8, human α1β1γ1 complex with K42A mutation in α1 (Homo sapiens, UniProt P54619+Q13131+Q9Y478, K42A).
T8 construct: made in house; host or cells: Escherichia coli
Nature of the assay: Allosteric activation of α1β1γ1 complex, K42A mutant. Format: biochemical.
Description: as §6, §4, §7, §8

The target of assay [6] is T9, AMPK-γ2 R531G (RG) mutant (Homo sapiens, UniProt Q9UGJ0, R531G).
T9 construct: expressed in transfected cells
Nature of the assay: AMPK activity in HEK293 cells expressing R531G AMPK-γ2. As to conditions: 1 hr. Format: cell-based. The text has this: (§9) The next possibility was that, like several other AMPK-activating drugs, SU6656 inhibits mitochondrial ATP synthesis, and thus activates AMPK indirectly by increasing cellular AMP/ADP. To test this, we used cell lines inducibly expressing either WT AMPK-γ2 or an AMP/ADP-resistant R531G (RG) mutant ([Hawley et al., 2010]). […] There were no effects of SU6656 on cellular oxygen uptake, unlike berberine. Subsequent addition of the uncoupler 2,4-dinitrophenol (DNP), which prevents the respiratory chain from being limited by ADP supply, increased oxygen uptake identically in control and SU6656-treated cells but had no effect following berberine, as expected for a complex I inhibitor (Figure S2).
(§10) (B) WT or RG cells were treated as in (A) and nucleotides extracted for analysis (mean ± SD, n = 3). […] (E) (See also Figure S2) Time courses of cellular oxygen uptake before and after addition of the indicated concentrations of sorafenib (SO, μM), SU6656 (100 μM) or phenformin (PHEN, 10 mM) (mean ± SEM, n = 4). (F) Effect of various concentrations of sorafenib or phenformin (10 mM) on activation (top, mean ± SEM, n = 3) or phosphorylation (bottom) of AMPK in cells expressing wild-type AMPK-γ2 (WT) or the R531G mutant AMPK-γ2 (RG). In all panels, asterisks show significant differences from DMSO controls (ns, not significant). In (B), daggers (†) show significant differences between results in WT and RG cells. *p < 0.05, **p < 0.01, ***p < 0.001, ****p < 0.0001, ^††††p < 0.0001.
(§11) HEK-293 cells stably expressing tetracycline-inducible FLAG-tagged human AMPK-γ2, or an R531G mutant, were generated by introducing the corresponding DNAs into Flp-In™ T-REx™ 293 cells ([Auciello et al., 2014]). Expression of the FLAG-tagged constructs was induced for 48 hr using tetracycline (1 μg.ml^-1) prior to addition of compounds under test. Transient transfections were carried out 36-48 hr prior to experiments, using Fugene 6 according to manufacturers’ instructions.

Assay [7] deals with T10, human α1β1γ1 complex with K40A mutation in α1 (Homo sapiens, UniProt P54619+Q13131+Q9Y478, K40A).
T10 construct: made in house; host or cells: Escherichia coli
Nature of the assay: Allosteric activation of α1β1γ1 complex, K40A mutant. Format: biochemical.
Description: as §6, §4, §7, §8

The target in another assay is T11, human α1β1γ1 complex (Homo sapiens, UniProt P54619+Q13131+Q9Y478).
T11 construct: made in house; host or cells: Escherichia coli
Description: Allosteric activation of bacterially expressed human α1β1γ1 complex, WT. Format: biochemical.
Description: as §6, §4, §7, §8

A further assay concerns the target T12, AMPK-γ2 (WT) (Homo sapiens, UniProt Q9UGJ0).
T12 construct: expressed in transfected cells; host or cells: Flp-In T-REx 293 (HEK293), tetracycline-inducible
Description: AMPK activity in HEK293 cells expressing WT AMPK-γ2. Conditions: 1 hr. Format: cell-based.
Description: as §9, §10, §11

T5 sequence (Q13131 whole entry): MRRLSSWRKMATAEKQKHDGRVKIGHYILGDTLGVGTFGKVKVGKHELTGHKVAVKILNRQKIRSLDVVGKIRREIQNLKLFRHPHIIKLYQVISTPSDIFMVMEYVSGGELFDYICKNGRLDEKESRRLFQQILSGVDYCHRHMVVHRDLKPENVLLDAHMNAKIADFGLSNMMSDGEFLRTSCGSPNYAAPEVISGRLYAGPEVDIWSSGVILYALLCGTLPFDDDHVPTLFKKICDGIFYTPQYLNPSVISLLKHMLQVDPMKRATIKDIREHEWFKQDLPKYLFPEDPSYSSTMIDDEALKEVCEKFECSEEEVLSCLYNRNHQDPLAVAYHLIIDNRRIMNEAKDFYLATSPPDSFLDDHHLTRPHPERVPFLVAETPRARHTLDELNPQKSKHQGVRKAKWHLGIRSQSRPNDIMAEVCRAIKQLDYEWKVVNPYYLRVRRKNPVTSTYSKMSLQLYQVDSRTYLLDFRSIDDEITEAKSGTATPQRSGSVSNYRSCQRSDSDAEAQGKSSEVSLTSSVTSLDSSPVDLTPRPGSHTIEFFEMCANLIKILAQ
T5 sequence (P54619 whole entry partner): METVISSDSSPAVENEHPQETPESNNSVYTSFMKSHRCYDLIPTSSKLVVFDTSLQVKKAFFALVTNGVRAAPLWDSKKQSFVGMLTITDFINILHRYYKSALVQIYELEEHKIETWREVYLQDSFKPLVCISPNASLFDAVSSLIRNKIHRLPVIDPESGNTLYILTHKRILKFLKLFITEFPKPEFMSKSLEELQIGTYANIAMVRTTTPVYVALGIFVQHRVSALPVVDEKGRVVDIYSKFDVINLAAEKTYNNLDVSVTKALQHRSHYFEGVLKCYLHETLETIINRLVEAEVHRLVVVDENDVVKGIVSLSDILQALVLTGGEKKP
T10 sequence (Q13131 whole entry K40A): as the sequence (Q13131 whole entry) above, with K40A counted along it
T10 sequence (Q9Y478 whole entry): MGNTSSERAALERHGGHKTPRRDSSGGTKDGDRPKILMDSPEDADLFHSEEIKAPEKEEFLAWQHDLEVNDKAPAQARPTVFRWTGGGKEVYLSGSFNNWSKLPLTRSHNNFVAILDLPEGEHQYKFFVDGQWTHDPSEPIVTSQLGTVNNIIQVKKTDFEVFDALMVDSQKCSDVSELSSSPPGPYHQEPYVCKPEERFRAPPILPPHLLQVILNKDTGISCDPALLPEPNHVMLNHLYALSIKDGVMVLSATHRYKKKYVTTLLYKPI
T10 sequence (P54619 whole entry): as the sequence (P54619 whole entry partner) above
T7 sequence (Q13131 whole entry K40A/K42A): as the sequence (Q13131 whole entry) above, with K40A, K42A counted along it
T7 sequence (Q9Y478 whole entry): as the sequence (Q9Y478 whole entry) above
T7 sequence (P54619 whole entry): as the sequence (P54619 whole entry partner) above
T3 sequence (Q13131 whole entry): as the sequence (Q13131 whole entry) above
T3 sequence (P54619 whole entry partner): as the sequence (P54619 whole entry partner) above
T11 sequence (Q13131 whole entry): as the sequence (Q13131 whole entry) above
T11 sequence (Q9Y478 whole entry): as the sequence (Q9Y478 whole entry) above
T11 sequence (P54619 whole entry): as the sequence (P54619 whole entry partner) above
T2 sequence (Q13131 1-312): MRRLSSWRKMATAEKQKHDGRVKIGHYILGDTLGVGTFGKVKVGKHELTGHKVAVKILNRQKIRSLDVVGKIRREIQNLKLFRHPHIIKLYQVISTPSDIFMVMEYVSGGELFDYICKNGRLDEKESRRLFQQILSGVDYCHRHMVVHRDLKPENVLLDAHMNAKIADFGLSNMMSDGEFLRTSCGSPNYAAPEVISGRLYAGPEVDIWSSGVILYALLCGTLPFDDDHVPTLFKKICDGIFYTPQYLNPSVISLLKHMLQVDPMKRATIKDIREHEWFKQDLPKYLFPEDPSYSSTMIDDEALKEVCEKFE
human AMPK-α2 (WT), sequence (P54646 whole entry): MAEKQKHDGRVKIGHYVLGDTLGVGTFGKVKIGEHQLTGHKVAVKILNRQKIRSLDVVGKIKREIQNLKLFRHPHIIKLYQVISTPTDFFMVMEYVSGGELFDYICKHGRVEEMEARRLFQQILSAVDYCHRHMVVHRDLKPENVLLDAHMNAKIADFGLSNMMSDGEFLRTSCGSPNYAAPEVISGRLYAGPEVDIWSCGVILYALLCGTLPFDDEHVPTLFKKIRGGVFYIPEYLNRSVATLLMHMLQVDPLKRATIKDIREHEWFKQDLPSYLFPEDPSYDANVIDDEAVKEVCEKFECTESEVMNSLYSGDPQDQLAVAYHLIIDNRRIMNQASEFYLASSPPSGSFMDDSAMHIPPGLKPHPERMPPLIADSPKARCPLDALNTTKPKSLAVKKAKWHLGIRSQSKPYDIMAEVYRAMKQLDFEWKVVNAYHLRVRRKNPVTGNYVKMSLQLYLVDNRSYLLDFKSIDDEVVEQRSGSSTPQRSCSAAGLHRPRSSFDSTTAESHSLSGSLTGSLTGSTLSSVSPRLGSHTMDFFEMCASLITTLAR
human AMPK-α2 (WT), sequence (P54619 whole entry partner): as the sequence (P54619 whole entry partner) above
T4 sequence (Q13131 whole entry A167T): as the sequence (Q13131 whole entry) above, with A167T counted along it
T4 sequence (P54619 whole entry partner): as the sequence (P54619 whole entry partner) above
T12 sequence (Q9UGJ0 whole entry): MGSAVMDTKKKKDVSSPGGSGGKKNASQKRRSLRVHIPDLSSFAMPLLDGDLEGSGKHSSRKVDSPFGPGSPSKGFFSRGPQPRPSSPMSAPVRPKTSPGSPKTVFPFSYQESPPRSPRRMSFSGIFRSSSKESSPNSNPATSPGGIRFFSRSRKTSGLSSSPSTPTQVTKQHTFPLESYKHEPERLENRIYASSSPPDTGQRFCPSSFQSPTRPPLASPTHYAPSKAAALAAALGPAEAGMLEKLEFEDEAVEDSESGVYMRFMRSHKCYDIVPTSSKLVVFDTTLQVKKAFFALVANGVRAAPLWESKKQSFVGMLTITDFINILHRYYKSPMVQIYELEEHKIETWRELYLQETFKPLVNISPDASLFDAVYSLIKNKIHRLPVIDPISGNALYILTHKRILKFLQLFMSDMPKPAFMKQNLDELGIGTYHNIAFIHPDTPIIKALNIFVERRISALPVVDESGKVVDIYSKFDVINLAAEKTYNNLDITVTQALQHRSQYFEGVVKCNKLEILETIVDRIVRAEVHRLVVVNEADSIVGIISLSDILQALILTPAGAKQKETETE
T8 sequence (Q13131 whole entry K42A): as the sequence (Q13131 whole entry) above, with K42A counted along it
T8 sequence (Q9Y478 whole entry): as the sequence (Q9Y478 whole entry) above
T8 sequence (P54619 whole entry): as the sequence (P54619 whole entry partner) above
T6 sequence (Q13131 whole entry K40A/K42A): as the sequence (Q13131 whole entry) above, with K40A, K42A counted along it
T6 sequence (P54619 whole entry partner): as the sequence (P54619 whole entry partner) above
T9 sequence (Q9UGJ0 whole entry R531G): as the sequence (Q9UGJ0 whole entry) above, with R531G counted along it
T1 sequence (P54646 whole entry Y436F): as the sequence (P54646 whole entry) above, with Y436F counted along it
T1 sequence (P54619 whole entry partner): as the sequence (P54619 whole entry partner) above

Regarding `CNc1ccc2oc(C[C@H]3O[C@@]4(CC[C@H]3C)O[C@H]([C@H](C)C(=O)c3ccc[nH]3)[C@H](C)C[C@H]4C)nc2c1C(=O)O` [A23187], the “AMPK activation response with Y436F mutation” value in [1] was “unaffected by the Y436F mutation”. Also, the “kinase activity / Thr172 phosphorylation” value in assay [2] and in assay [3] was “also observed” throughout. Also, the AMPK activity result on AMPK-α1 AT mutant and on AMPK-α1 (WT) was “activated equally well” each time. In addition, the “AMPK activity in anti-FLAG immunoprecipitates” value at human AMPK-α2 (WT) is listed as “all activated AMPK”.

For `N#Cc1c(O)c2c(-c3ccc(-c4ccccc4O)cc3)csc2[nH]c1=O` [A769662], the “effect of AA mutation on AMPK activation” value at AMPK-α1 AA mutant is recorded as “completely prevented”. Also, in assay [3], the “kinase activity / Thr172 phosphorylation” value is “not statistically significant”. For the same compound, the “Activation (maximal allosteric activation)” value is recorded as 1.0 ± 0.03 fold in assay [4]; 21 ± 0.6 fold in assay [5]; 18 ± 0.7 fold in [7]; 38 ± 1 fold at human α1β1γ1 complex (not phosphorylated on Thr172, relative to basal activity). Moreover, the EC50 turned out to be 1 ± 2 nM in assay [4], 4000 ± 700 nM in [7] and 1000 ± 100 nM on human α1β1γ1 complex (read-out: EC50 (concentration causing half-maximal effect)). In addition, the AMPK activity result on AMPK-α1 (WT) is given as “did not cause a significant activation”; in assay [6] it was “activated AMPK in both”; on AMPK-γ2 (WT) it was “activated AMPK in both”. In addition, the “AMPK activity and Thr172 phosphorylation” value at AMPK-α1 (WT) (WT FLAG-α1, A769662 300 μM, berberine 300 μM, phenformin 10 mM, troglitazone 100 μM, oligomycin 1 μM, SU6656 100 μM) is “activated AMPK and caused Thr172 phosphorylation”.
